In patent publication EP4759816A1, “UREA-CONTAINING […] ß-LACTAMASE INHIBITOR, PREPARATION METHOD THEREFOR AND USE THEREOF” (priority 2023, dated 2025) one finds MIC50 and IC50 data, which are given here for nine compounds.

Experiment [1] has as its system K.Pneumoniae BAA-1705. The experiment in a line: MIC by broth microdilution, β-lactam antibiotic combined with β-lactamase inhibitor. Format: cell-based. The conditions noted are these: Klebsiella pneumoniae, BAA1705; K.Pneumoniae BAA-1705, expresses KPC-2; MIC of the antibiotic, inhibitor fixed at 4 mg/L; read-out: Antibacterial Activity (MIC50).
Experiment [2] deals with E. Coli NCTC 13353. The experiment is described as above. Format: cell-based. The conditions noted are these: Escherichia coli, NCTC13353; E. Coli NCTC 13353, expresses CTX-M-15; MIC of the antibiotic, inhibitor fixed at 4 mg/L; read-out: Antibacterial Activity (MIC50). On the procedure: (§1) The minimum inhibitory concentration (MIC) of the Example compounds (at a concentration of 4 mg/L) in combination with β-lactam antibiotics (ceftazidime, cefepime, meropenem, imipenem, aztreonam) against bacterial strains was tested using the broth microdilution method recommended by the Clinical and Laboratory Standards Institute (CLSI, formerly NCCLs) [Methods for Dilution Antimicrobial Susceptibility Tests for Bacteria That Grow Aerobically; Approved Standard-tenth Edition M07-A10, 2015]. The specific test materials and procedures are as follows.
(§2) The standard strains used in this experiment were purchased ATCC strains. The clinical strains used were strains resistant to some or all marketed β-lactam antibiotics, isolated and identified by domestic public hospitals, and the types of β-lactamases they express were determined. Before the experiment, each bacterial strain was purified by streaking single colonies on an agar plate, and fresh bacterial cultures grown overnight at 37°C were appropriately diluted for the experiment.
(§3) CAMHB (Cation Adjusted Mueller-Hinton) medium, incubated at 35-37°C in air for 16-20 h.
(§4) CAMHB Formula: Acid-hydrolyzed casein (17.5 g/L), beef extract (3.0 g/L), soluble starch (1.5 g/L), calcium ions (20-25 mg/L), magnesium ions (10-12.5 mg/L).
(§5) Stock solutions at 4 times the working concentration were prepared in CAMHB broth for the combinations of antibiotics (ceftazidime, cefepime, meropenem, aztreonam) and Example compounds. The final concentrations of antibiotics in the stock solutions were 256, 128, 64, 32, 16, 8, 4, 2, 1, 0.5, 0.25, 0.125 mg/L, respectively. The final concentration of avibactam, relebactam, or Example compounds was 4 mg/L.
(§6) Several colonies were picked from an 18-24 h cultured agar plate and suspended directly in sterile physiological saline to prepare a bacterial suspension. The turbidity of the suspension was adjusted to 0.5 McFarland standard. The adjusted bacterial suspension was diluted with CAMHB broth to (4-8) × 10^5 CFU/mL and used immediately.
(§7) Test Group: 50 µL of the antibiotic (ceftazidime, cefepime, meropenem, imipenem, aztreonam) stock solution and 50 µL of the β-lactamase inhibitor (avibactam, relebactam, or Example compound) stock solution were added to wells 1 to 12 of a sterile 96-well polystyrene plate. Then, 100 µL of CAMHB containing the test bacterial suspension was added to each well, making a total volume of 200 µL per well. The final drug concentrations in the wells were 64, 32, 16, 8, 4, 2, 1, 0.5, 0.25, 0.125, 0.06, 0.03 mg/L, respectively. […]
(§8) The inoculated 96-well polystyrene plates were sealed and placed in an incubator at 35-37°C for 16-20 h before reading the results. […]

The subject of experiment [3] is E. coli ATCC 35218. The experiment is described as above. In kind it is cell-based. The conditions noted are these: Escherichia coli, ATCC35218; E. coli ATCC 35218, expresses TEM-1; MIC of the antibiotic, inhibitor fixed at 4 mg/L; read-out: Antibacterial Activity (MIC50). As for the experimental part: as §1, §2, §3, §4, §5, §6, §7, §8
For experiment [4], the system named is P. aeruginosa ATCC 27853. The description is as above. Format: cell-based. The conditions noted are these: Pseudomonas aeruginosa, ATCC27853; P. aeruginosa ATCC 27853, expresses AmpC; MIC of the antibiotic, inhibitor fixed at 4 mg/L; read-out: Antibacterial Activity (MIC50). On the procedure: as §1, §2, §3, §4, §5, §6, §7, §8
For experiment [5], the system named is E. coli ATCC 25922. Described as above. Format: cell-based. The conditions noted are these: Escherichia coli, ATCC25922; E. coli ATCC 25922, β-lactamase expressed: -; MIC of the antibiotic, inhibitor fixed at 4 mg/L; read-out: Antibacterial Activity (MIC50). As for the experimental part: as §1, §2, §3, §4, §5, §6, §7, §8
For experiment [6], the target named is KPC-2 (Klebsiella pneumoniae, UniProt Q9F663). The experiment in a line: β-Lactamase inhibitory activity test, nitrocefin substrate. Format: biochemical. As for the experimental part:
(§9) The IC50 of β-lactamase inhibitors against β-lactamases was tested using nitrocefin as the substrate. The enzyme and serially diluted β-lactamase inhibitor were incubated in 50 mM phosphate buffer (containing 0.1 mg/mL bovine serum albumin) at 37°C for 10 minutes. The reaction was initiated by adding 100 µM nitrocefin, and the reaction temperature was set to 37°C. The absorbance at 490 nm was recorded every minute for a total of 1 hour. The initial reaction rate was calculated, and the IC50 was calculated using GraphPad Prism software. Table 4. Inhibitory activity (IC50, mg/L) of compounds against β-lactamases

Experiment [7] concerns the target OXA-23 (Acinetobacter baumannii, UniProt Q9L4P2). The description is as above. In kind it is biochemical. As for the experimental part:
as §9

Experiment [8] has as its target TEM-1 (Escherichia coli, UniProt P62593). Described as above. Format: biochemical. On the procedure:
as §9

The target in experiment [9] is OXA-10 (Pseudomonas aeruginosa, UniProt P14489). The description is as above. Format: biochemical. On the procedure:
as §9

Where [10] appears, read: TEM-1, enzyme family A, 100 µM nitrocefin, 37°C, 10 minutes preincubation, read-out: Inhibitory activity (IC50).

Where two headings read alike, the source gives them in different places. A value given as a limit tells only on which side of the number the result lay.

Sequence of KPC-2 (Q9F663 25-293 limits assumed): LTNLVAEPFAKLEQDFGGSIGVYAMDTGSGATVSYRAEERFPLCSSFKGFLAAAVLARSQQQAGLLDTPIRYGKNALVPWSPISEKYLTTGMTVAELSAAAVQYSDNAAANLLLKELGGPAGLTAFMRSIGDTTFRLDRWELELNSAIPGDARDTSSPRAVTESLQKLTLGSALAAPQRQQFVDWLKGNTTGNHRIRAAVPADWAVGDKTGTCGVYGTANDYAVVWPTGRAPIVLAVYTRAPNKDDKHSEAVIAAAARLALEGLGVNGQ
Sequence of OXA-23 (Q9L4P2 18-273): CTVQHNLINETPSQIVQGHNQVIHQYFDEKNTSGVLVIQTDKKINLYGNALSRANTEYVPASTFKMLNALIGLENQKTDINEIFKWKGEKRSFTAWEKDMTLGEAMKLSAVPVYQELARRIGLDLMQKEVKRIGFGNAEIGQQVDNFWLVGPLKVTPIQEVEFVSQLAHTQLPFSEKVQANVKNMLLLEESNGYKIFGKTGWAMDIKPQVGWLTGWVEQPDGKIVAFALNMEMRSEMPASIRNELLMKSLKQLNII
Sequence of OXA-10 (P14489 20-266): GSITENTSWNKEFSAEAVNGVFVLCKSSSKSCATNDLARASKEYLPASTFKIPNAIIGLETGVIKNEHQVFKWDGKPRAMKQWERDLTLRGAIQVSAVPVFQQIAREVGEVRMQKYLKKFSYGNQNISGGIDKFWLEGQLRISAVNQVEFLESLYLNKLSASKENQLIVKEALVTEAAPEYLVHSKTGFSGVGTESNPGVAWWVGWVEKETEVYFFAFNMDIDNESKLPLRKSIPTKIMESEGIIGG
Sequence of TEM-1 (P62593 24-286 limits assumed): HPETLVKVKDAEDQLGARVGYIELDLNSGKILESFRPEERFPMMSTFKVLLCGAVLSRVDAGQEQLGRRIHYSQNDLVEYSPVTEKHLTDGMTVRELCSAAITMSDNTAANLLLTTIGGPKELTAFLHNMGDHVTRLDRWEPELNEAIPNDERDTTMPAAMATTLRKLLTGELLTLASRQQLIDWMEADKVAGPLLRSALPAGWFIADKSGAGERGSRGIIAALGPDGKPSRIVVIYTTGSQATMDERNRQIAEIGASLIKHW

For orientation: MIC50 means the lowest concentration that inhibits either 50% of growth or 50% of the strains tested, depending on the study. For `CC(C)(O/N=C(\C(=O)N[C@@H]1C(=O)N2C(C(=O)[O-])=C(C[n+]3ccccc3)CS[C@H]12)c1csc(N)n1)C(=O)O` [Ceftazidime], the MIC50 is greater than 10 µg/mL in experiment [1]; greater than 10 µg/mL in experiment [2]; 0.1 to 1 µg/mL in [3]; 1 to 10 µg/mL in [4]; 0.1 to 1 µg/mL in experiment [5].

The term IC50 denotes the point on the concentration scale where inhibition reaches its midpoint. With `O=C1N2Cc3c(ccn3S(=O)(=O)c3ccccc3)C(C2)N1OS(=O)(=O)O` (centres unmarked) [Example 1 Compound], the IC50 in experiment [6], in experiment [7], in experiment [8] (setting [10]) and in [9] was less than 1000 nM in each case.

As for `CS(=O)(=O)n1ccc2c1CN1CC2N(OS(=O)(=O)O)C1=O` (centres unmarked) [Example 2 Compound], the half-inhibitory concentration (IC50) in [6], in [7], in [8] (setting [10]) and in [9] was less than 1000 nM in each case.

Turning to `CS(=O)(=O)n1ccc2c1CN1C[C@@H]2N(OS(=O)(=O)O)C1=O` [Example 3 Compound], the IC50 in experiment [6], in experiment [7], in [8] (setting [10]) and in [9] was less than 1000 nM throughout.

As for `CCS(=O)(=O)n1ccc2c1CN1C[C@@H]2N(OS(=O)(=O)O)C1=O` [Example 4 Compound], the values for the IC50 in [6], in experiment [7] and in experiment [8] were less than 1000 nM, 1000 to 10000 nM and less than 1000 nM, respectively.

In the case of `O=C1N2Cc3c(ccn3S(=O)(=O)c3cccnc3)[C@H](C2)N1OS(=O)(=O)O` [Example 10 Compound], the IC50 in [6], in [7] and in experiment [8] was less than 1000 nM in each case.

Consider `Cn1cc(S(=O)(=O)n2ccc3c2CN2C[C@@H]3N(OS(=O)(=O)O)C2=O)cn1` [Example 11 Compound], for which the IC50 was less than 1000 nM in experiment [6], 1000 to 10000 nM in experiment [7] and less than 1000 nM in experiment [8].

Take `CS(=O)(=O)n1ccc2c1C(C(N)=O)N1CC2N(OS(=O)(=O)O)C1=O` (centres unmarked) [Example 14 Compound]: the results for the IC50 in [6], in experiment [7] and in experiment [8] were less than 1000 nM, 10000 to 100000 nM and less than 1000 nM, respectively.

In the case of `NC(=O)C1c2c(ccn2S(=O)(=O)C2CC2)C2CN1C(=O)N2OS(=O)(=O)O` (centres unmarked) [Example 15 Compound], the half-inhibitory concentration (IC50) in experiment [6], in experiment [7] and in experiment [8] was greater than 100000 nM each time.
